From PMC6476959, “Novel 3,4-Dihydroisocoumarins Inhibit Human P-gp and BCRP in Multidrug Resistant Tumors and Demonstrate Substrate Inhibition of Yeast Pdr5” (Frontiers in Pharmacology, 2019)

Columns and labels:
BCRP = target: T1, BCRP (Homo sapiens, UniProt Q9UNQ0); test: BCRP transport assay (Hoechst 33342) in MCF-7/MX cells; type: cell-based
T1 construct: endogenous in cells; host or cells: MCF-7/MX human breast adenocarcinoma cells (mitoxantrone-selected)
T1 sequence (Q9UNQ0 1-655): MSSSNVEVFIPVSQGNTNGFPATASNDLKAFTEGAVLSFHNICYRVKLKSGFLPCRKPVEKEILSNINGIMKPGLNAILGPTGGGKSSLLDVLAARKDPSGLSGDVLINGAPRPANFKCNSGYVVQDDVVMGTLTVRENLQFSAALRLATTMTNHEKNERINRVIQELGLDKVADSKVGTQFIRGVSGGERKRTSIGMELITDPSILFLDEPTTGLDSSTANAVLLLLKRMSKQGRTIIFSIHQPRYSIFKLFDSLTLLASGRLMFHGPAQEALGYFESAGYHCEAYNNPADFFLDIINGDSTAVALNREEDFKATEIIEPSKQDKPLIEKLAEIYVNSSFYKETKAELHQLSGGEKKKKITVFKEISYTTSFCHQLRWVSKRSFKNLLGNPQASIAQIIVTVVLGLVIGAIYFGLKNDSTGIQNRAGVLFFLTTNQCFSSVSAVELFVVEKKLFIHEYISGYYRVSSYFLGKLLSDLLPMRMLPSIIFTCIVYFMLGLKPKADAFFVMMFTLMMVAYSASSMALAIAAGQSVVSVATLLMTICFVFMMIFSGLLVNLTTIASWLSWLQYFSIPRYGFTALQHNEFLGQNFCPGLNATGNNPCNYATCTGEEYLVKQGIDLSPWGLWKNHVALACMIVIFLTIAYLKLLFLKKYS
Method: Breast cancer resistance protein transport activity was determined in the BCRP-expressing MCF-7/MX cell line. Hoechst 33342 was applied as transporter substrate and 1 μM Ko143 as positive control or 0.5% DMSO as negative control and the assay was performed according to the P-gp assay. Fluorescence was measured at an excitation wavelength of 355 nm and emission wavelength of 460 nm. The transport activity of BCRP was analyzed by determining the plateau of the fluorescence-time curve by using non-linear regression (one-phase exponential fit). Normalization of the data to Ko143 (100% inhibition) and DMSO (0% inhibition) was performed.

[1] = Solubility observation in transporter assays; type: physicochemical; settings: could not be employed at 50 μM
P-gp = target: T2, P-gp (Homo sapiens, UniProt P08183); test: P-gp transport assay (calcein-AM) in HCT-15 cells; type: cell-based
T2 construct: endogenous in cells; host or cells: HCT-15 human colon adenocarcinoma cells
Method: The transport of calcein-AM by P-gp and its modulation by test compounds was analyzed in the P-gp-expressing HCT-15 cell line. 5 × 10^4 cells were seeded in black 96-well plates and incubated at 37°C and 5% CO2 for 24 h. The culture medium was removed and replaced by Hank’s balanced salt solution supplemented with 10 mM HEPES. Test compounds, 2.5 μM PSC833 (positive control) or 0.5% DMSO (negative control) were added in triplicates and incubated for 30 min at 37°C and 5% CO2. The substrate calcein-AM was added (final concentration 0.5 μM) and the fluorescence (excitation 485 nm, emission 520 nm) was measured over 3 h with the Infinite m1000 pro microplate reader (Tecan Group AG, Männedorf, Switzerland) at 37°C. The transport activity of P-gp was analyzed by determining the slope of the linear part of the fluorescence-time curve (0–30 min) using linear regression. Normalization of the data to PSC833 (100% inhibition) and DMSO (0% inhibition) was performed.

Pdr5 = target: T3, Pdr5 (Saccharomyces cerevisiae, UniProt P33302); test: Pdr5 ATPase assay (oligomycin-sensitive) in plasma membrane preparations; type: biochemical; settings: highest concentrations (10 mM), in comparison to Pdr5 WT in the absence of any compound
T3 construct: effect on (A) the transport activity of Pdr5 WT and (B) their effect on the ATPase activity; made in house; host or cells: S. cerevisiae YRE1001 (pdr1-3 background), isolated plasma membranes
Method: Saccharomyces cerevisiae cells expressing Pdr5 WT or the E1036Q (EQ) mutant were cultured to an OD600 of 1.5 in YPD-media at 25°C. The nitrogen source was replenished by addition of a 10th volume of 5x YP (50 g/l yeast extract, 100 g/l peptone). The cells were grown to an OD of 3.5 and harvested (5000 ×g at 4°C for 15 min). The isolation of Pdr5 containing PMs was performed as described ([Kolaczkowski et al., 1996]; [Ernst et al., 2008]).
Oligomycin (OM)-sensitive ATPase activity was measured from 0.8 μg PM containing Pdr5 incubated with 2 mM ATP, 5 mM MgCl2 in 270 mM TRIS-glycine buffer (pH 9.5) and 2.5 μl of the test compounds or DMSO as a control in a total volume of 100 μl. To reduce the background activities, 0.2 mM ammonium molybdate, 10 mM NaN3 and 50 mM KNO3, respectively, were added ([Dufour et al., 1988]; [Goffeau and Dufour, 1988]). In a second assay, OM (20 μg/ml) was added to an otherwise identical setup. After incubation at 30°C for 20 min, the reaction was stopped by adding 25 μl of the reaction to 175 μl 40 mM H2SO4. The amount of released inorganic phosphate was determined by a colometric assay in 96-well plates ([Goffeau and Dufour, 1988]; [Decottignies et al., 1994]; [Wada et al., 2002]). The difference of both assays ( ± OM) corresponds to the specific ATPase activity of Pdr5 ([Ernst et al., 2008]).

MCF-7/MX cells = test: CellTiter-Glo cell viability assay (cytotoxicity), MCF-7/MX; type: cell-based; settings: Homo sapiens, MCF7/MX; 48 h, BCRP-expressing, mean ± SEM
Method: (§1) The human lung adenocarcinoma cell line A549 was cultured in DMEM medium supplemented with 10% fetal bovine serum (FBS), 100 U/mL penicillin and 100 μg/mL streptomycin. P-gp-expressing human colon adenocarcinoma cells HCT-15 were cultured in RPMI 1640 medium supplemented with 10% FBS, 100 U/mL penicillin and 100 μg/mL streptomycin. BCRP-expressing MCF-7/MX human breast adenocarcinoma cells were cultured in DMEM medium supplemented with 10% FBS, 100 U/mL penicillin and 100 μg/mL streptomycin. MRP1-expressing H69AR human small cell lung cancer cells were cultured in RPMI 1640 medium (ATCC modification) supplemented with 20% FBS, 100 U/mL penicillin and 100 μg/mL streptomycin. All cancer cell lines employed have been systematically characterized regarding their respective ABC transporter expression profile ([Sachs et al., 2019]).
(§2) Cytotoxic activity of test compounds was analyzed after 48 h using the CellTiter-Glo Luminescent Cell Viability Assay published previously ([Weber et al., 2017]) in 384-well plates with the following cell densities: A549, MCF-7/MX: 2 × 10^3 cells/well; HCT-15: 3 × 10^3 cells/well; H69AR: 5 × 10^3 cells/well. Pipetting was conducted with the CyBi-Well 96-channel simultaneous pipettor (Analytik Jena AG, Jena, Germany). For generation of dose-response curves and calculation of IC50 values, the four-parameter logistic model was applied.

H69AR cells = test: CellTiter-Glo cell viability assay (cytotoxicity), H69AR; type: cell-based; settings: Homo sapiens, 48 h, MRP1-expressing, mean ± SEM
Method: as §1, §2

HCT-15 cells = test: CellTiter-Glo cell viability assay (cytotoxicity), HCT-15; type: cell-based; settings: Homo sapiens, 48 h, P-gp expressing, mean ± SEM
Method: as §1, §2

A549 cells = test: CellTiter-Glo cell viability assay (cytotoxicity), A549; type: cell-based, human; settings: Homo sapiens, A549; 48 h, mean ± SEM
Method: as §1, §2

T3 sequence (P33302 whole entry): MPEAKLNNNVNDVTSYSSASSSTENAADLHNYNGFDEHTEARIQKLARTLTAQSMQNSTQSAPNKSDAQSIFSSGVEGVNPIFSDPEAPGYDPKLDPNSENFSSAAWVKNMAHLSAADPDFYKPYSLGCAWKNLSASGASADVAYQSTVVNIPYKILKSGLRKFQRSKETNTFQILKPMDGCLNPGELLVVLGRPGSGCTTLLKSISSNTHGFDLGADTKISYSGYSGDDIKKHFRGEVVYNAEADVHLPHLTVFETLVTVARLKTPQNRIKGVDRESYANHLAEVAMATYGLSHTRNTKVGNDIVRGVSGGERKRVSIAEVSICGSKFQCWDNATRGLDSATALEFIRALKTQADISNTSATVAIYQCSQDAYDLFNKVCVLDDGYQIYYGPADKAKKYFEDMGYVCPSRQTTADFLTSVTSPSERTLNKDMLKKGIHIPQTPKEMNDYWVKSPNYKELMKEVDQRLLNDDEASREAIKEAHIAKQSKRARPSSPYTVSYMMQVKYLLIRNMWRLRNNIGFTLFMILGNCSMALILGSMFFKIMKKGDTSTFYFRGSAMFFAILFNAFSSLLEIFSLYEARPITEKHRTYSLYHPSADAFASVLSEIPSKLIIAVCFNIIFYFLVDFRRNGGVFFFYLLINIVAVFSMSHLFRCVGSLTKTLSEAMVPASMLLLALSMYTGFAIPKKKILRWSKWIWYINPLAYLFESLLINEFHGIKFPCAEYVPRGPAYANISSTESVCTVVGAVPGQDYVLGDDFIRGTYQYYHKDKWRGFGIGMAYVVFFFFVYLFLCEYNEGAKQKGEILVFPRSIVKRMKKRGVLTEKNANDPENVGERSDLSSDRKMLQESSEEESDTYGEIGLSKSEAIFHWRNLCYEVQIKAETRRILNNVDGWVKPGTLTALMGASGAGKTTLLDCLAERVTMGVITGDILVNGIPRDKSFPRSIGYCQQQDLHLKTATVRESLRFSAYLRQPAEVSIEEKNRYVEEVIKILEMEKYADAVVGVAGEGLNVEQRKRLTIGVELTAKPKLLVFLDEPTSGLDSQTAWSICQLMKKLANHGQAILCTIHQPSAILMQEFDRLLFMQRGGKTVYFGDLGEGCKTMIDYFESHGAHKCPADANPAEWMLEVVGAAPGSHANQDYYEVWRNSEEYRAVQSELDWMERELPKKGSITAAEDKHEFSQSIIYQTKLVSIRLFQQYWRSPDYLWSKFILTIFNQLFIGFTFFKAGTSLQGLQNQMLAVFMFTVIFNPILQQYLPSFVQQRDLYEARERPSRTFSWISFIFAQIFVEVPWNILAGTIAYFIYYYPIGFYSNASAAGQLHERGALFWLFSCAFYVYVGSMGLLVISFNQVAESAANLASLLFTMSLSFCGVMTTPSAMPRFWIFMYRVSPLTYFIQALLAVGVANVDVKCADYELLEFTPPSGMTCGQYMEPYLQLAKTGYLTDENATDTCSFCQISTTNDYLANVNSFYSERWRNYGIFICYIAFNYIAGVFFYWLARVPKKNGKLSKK
T2 sequence (P08183 whole entry): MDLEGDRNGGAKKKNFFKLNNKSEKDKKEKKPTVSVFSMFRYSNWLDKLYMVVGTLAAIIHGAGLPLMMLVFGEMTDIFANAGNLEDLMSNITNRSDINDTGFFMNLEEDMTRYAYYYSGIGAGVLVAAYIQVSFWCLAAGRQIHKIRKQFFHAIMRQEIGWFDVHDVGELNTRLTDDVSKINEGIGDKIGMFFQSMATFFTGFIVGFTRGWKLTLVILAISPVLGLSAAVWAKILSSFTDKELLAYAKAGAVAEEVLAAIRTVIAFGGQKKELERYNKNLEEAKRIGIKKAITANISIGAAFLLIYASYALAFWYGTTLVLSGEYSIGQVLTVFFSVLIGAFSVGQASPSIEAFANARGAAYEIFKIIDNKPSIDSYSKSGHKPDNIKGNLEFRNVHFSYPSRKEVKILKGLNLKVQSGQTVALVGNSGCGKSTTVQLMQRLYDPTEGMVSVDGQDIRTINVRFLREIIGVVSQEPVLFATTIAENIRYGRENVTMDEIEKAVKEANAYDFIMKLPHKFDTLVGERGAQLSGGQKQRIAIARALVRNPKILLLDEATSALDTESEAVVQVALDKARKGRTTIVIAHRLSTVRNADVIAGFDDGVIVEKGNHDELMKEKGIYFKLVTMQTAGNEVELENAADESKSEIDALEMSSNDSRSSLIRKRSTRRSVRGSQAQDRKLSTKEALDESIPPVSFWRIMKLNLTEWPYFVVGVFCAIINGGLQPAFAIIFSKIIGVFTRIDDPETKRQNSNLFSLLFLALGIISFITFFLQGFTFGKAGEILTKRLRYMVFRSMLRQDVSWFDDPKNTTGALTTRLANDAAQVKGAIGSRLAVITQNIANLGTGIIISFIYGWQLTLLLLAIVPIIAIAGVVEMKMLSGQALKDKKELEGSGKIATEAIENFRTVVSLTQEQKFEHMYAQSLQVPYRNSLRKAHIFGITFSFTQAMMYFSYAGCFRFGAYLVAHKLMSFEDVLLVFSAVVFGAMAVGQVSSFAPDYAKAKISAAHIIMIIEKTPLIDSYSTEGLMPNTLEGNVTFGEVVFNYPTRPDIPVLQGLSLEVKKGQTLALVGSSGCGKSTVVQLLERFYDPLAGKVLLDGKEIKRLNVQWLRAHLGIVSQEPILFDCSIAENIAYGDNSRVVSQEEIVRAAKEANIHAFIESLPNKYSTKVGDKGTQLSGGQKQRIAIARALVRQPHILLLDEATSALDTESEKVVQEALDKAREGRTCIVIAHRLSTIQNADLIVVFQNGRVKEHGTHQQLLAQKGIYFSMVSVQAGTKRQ

O=c1oc2c(O)c(O)cc3c(=O)oc4c(O)c(O)cc1c4c23 [Ellagic acid, ellagic acid]
Inhibition of BCRP (in words) (BCRP): did not display any inhibitory activity
Solubility (in words) [1]: low solubility
Inhibition of P-gp (in words) (P-gp): did not display any inhibitory activity
ATPase activity of Pdr5 WT inhibited to (initial screen) (Pdr5): 56%
ATPase activity of Pdr5 WT inhibited to (initial screen) (Pdr5; listed as ellagic acid): 50%
IC50 (MCF-7/MX cells): > 50 µM
IC50 (H69AR cells): > 50 µM
IC50 (HCT-15 cells): > 50 µM
IC50 (A549 cells): > 50 µM
